Results reported in patent US7053070B2, “Pyrido[2,3-d]pyrimidine-2,7-diamine kinase inhibitors” (Warner-Lambert Company, priority 2000, dated 2006).

How the values were obtained:
cdk1/cyclinB = cdk1/cyclinB (Homo sapiens, UniProt P06493); test: Cyclin dependent kinase 1 assay (cdk1/cyclinB), 32P incorporation, filter plate; type: biochemical; settings: retinoblastoma substrate, 12 mM ATP, 25° C., 15 minutes; read-out: Inhibition of Cdks: IC50 Cdk1/B
Protocol: (§1) Cyclin Dependent Kinase 1 and 2 Assays (cdk1/cyclinB, cdk2/cyclinA, cdk2/cyclinE)
(§2) Enzyme assays for IC50 determinations and kinetic evaluation are performed in a 96-well filter plate (Millipore MADVN6550) in a total volume of 0.1 mL of 20 mM TRIS (tris[hydroxymethyl]aminomethane), at pH 7.4, 50 mM NaCl, 1 mM dithiothreitol, 10 mM MgCl2, […] containing 0.25 μCi of [^32P]ATP, 20 ng of enzyme (either cdk1/B, cdk2/A, or cdk2E), 1 μg retinoblastoma and appropriate dilutions of the particular invention compound. All components except the ATP are added to the wells, and the plate is placed on a plate mixer for 2 minutes. The reaction is begun by addition of [^32P]ATP, and the plate is incubated at 25° C. for 15 minutes. The reaction is terminated by addition of 0.1 mL of 20% TCA. The plate is kept at 4° C. for at least 1 hour to allow the substrate to precipitate. The wells are then washed 5 times with 0.2 mL of 10% TCA and ^32P incorporation determined with a beta plate counter (Wallac Inc., Gaithersburg, Md.).

cdk2/cyclinA = cdk2/cyclinA (Homo sapiens, UniProt P24941); test: Cyclin dependent kinase 2 assay (cdk2/cyclinA), 32P incorporation, filter plate; type: biochemical; settings: retinoblastoma substrate, 12 mM ATP, 25° C., 15 minutes; read-out: Inhibition of Cdks: IC50 Cdk2/A
Protocol: as §1, §2

cdk2/cyclinE = cdk2/cyclinE (Homo sapiens, UniProt P24941); test: Cyclin dependent kinase 2 assay (cdk2/cyclinE), 32P incorporation, filter plate; type: biochemical; settings: retinoblastoma substrate, 12 mM ATP, 25° C., 15 minutes; read-out: Inhibition of Cdks: IC50 Cdk2/E
Protocol: as §1, §2

cdk4/cyclinD = cdk4/cyclinD (Homo sapiens, UniProt P11802); test: Cyclin Dependent Kinase 4 (cdk-4) Assay, 32P incorporation, filter plate; type: biochemical; settings: retinoblastoma substrate, 25 μM ATP, 25° C., 15 minutes; read-out: Inhibition of Cdks: IC50 Cdk4D
Protocol: Cyclin Dependent Kinase 4 (cdk-4) Assay
Enzyme assays for IC50 determinations and kinetic evaluation are performed in 96-well filter plates (Millipore MADVN6550). The total volume is 0.1 mL containing a final concentration of 20 mM TRIS (tris[hydroxymethyl]aminomethane), at pH 7.4, 50 mM NaCl, 1 mM dithiothreitol, 10 mM MgCl2, 25 μM ATP containing 0.25 μCi of [^32P]ATP, 20 ng of cdk4, 1 μg of retinoblastoma, and appropriate dilutions of a compound of the present invention. All components except the ATP are added to the wells, and the plate is placed on a plate mixer for 2 minutes. The reaction is started by adding [^32P]ATP, and the plate is incubated at 25° C. for 15 minutes. The reaction is terminated by addition of 0.1 mL of 20% trichloroacetic acid (TCA). The plate is kept at 4° C. for at least 1 hour to allow the substrate to precipitate. The wells are then washed 5 times with 0.2 mL of 10% TCA and ^32P incorporation is determined with a beta plate counter (Wallac Inc., Gaithersburg, Md.).

Chain of cdk4/cyclinD (P11802 whole entry, species assumed): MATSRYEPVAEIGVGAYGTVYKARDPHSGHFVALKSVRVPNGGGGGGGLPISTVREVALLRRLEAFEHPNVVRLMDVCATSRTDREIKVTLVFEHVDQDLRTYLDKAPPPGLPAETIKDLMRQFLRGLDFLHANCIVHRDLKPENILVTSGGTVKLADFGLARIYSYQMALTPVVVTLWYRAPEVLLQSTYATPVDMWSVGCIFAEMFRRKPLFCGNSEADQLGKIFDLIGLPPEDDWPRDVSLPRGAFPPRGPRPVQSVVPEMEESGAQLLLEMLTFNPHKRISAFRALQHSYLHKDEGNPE
Chain of cdk4/cyclinD (P24385 whole entry partner, species assumed): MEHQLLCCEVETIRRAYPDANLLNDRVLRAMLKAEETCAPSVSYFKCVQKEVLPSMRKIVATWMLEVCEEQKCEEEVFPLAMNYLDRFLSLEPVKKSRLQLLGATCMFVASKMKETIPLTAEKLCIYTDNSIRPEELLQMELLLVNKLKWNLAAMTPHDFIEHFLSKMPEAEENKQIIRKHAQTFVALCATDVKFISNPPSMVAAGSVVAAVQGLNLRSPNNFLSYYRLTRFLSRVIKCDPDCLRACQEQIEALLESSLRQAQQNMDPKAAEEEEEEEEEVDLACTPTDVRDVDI
Chain of cdk1/cyclinB (P06493 whole entry, species assumed): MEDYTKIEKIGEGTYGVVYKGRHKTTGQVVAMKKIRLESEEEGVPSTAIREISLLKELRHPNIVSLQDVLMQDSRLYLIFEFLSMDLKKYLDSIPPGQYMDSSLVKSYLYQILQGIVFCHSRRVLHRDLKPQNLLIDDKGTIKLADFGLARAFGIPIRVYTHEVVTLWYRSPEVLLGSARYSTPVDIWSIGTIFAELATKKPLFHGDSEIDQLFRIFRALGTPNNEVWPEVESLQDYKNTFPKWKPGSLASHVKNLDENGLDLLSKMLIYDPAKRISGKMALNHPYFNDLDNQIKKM
Chain of cdk1/cyclinB (P14635 whole entry partner, species assumed): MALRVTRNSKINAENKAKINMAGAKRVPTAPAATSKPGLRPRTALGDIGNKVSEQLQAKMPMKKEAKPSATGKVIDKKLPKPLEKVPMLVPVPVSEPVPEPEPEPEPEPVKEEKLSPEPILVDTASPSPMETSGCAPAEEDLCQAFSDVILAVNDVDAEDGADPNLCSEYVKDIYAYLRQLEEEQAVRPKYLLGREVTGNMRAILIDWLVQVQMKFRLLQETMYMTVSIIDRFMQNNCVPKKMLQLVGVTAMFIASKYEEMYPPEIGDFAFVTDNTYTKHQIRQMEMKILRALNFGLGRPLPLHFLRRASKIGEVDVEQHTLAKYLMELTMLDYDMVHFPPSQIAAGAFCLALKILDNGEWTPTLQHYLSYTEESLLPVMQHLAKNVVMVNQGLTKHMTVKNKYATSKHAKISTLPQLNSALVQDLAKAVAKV

| Compound | IC50 (cdk1/cyclinB) | IC50 (cdk2/cyclinA) | IC50 (cdk2/cyclinE) | IC50 (cdk4/cyclinD) | melting point |
| --- | --- | --- | --- | --- | --- |
| O=C(Nc1ccc2cnc(Nc3ccc(N4CCNCC4)cc3)nc2n1)N(CCO)CCO [Compound 89, 1,1-Bis-(2-hydroxy-ethyl)-3-[2-(4-piperazin-1-yl-phenylamino)-pyrido[2,3-d]pyrimidin-7-yl]-urea] | > 5 µM | > 5 µM | > 5 µM | > 5 µM | 185 °C (dec.) |
| CN(C)CCNC(=O)Nc1ccc2cnc(Nc3ccc(F)cc3)nc2n1 [Compound 99, 1-(2-Dimethylamino-ethyl)-3-[2-(4-fluoro-phenylamino)-pyrido[2,3-d]pyrimidin-7-yl]-urea] | 1.81 µM | 1.01 µM | 0.41 µM | > 5 µM | 251 to 255 °C |
| Cc1c(F)c(NC(=O)NC(C)C)nc2nc(Nc3ccc(N4CCNCC4)cc3)ncc12 [Compound 114, 1-[6-Fluoro-5-methyl-2-(4-piperazin-1-yl-phenylamino)-pyrido[2,3-d]pyrimidin-7-yl]-3-isopropyl-urea] | > 5 µM | > 5 µM | > 5 µM | > 5 µM | 208 °C (dec.) |
| CC(C)(C)NC(=O)Nc1ccc2cnc(Nc3ccc(N4CCN(C(=O)OC(C)(C)C)CC4)cc3)nc2n1 [Compound 79, 4-{4-[7-(3-tert-Butyl-ureido)-pyrido[2,3-d]pyrimidin-2-ylamino]-phenyl}-piperazine-1-carboxylic acid tert-butyl ester] | > 5 µM | 1.07 µM | > 5 µM | > 5 µM | 225 °C (dec.) |
| CN1CCN(C(=O)Nc2ccc3cnc(Nc4ccc(N5CCNCC5)cc4)nc3n2)CC1 [Compound 84, 4-Methyl-piperazine-1-carboxylic acid [2-(4-piperazin-1-yl-phenylamino)-pyrido[2,3-d]pyrimidin-7-yl]-amide] | > 5 µM | > 5 µM | > 5 µM | > 5 µM | 200 °C (dec.) |
| CC(C)C[C@@H](CO)NC(=O)Nc1ccc2cnc(Nc3ccc(N4CCNCC4)cc3)nc2n1 [Compound 83, 1-((S)-1-Hydroxymethyl-3-methyl-butyl)-3-[2-(4-piperazin-1-yl-phenylamino)-pyrido[2,3-d]pyrimidin-7-yl]-urea] | 0.399 µM | 0.305 µM | 0.315 µM | 0.055 µM | 185 °C (dec.) |
| C[C@@H]1CN(c2ccc(Nc3ncc4ccc(NC(=O)NC(C)(C)C)nc4n3)cc2)C[C@H](C)N1 [Compound 49, 1-tert-Butyl-3-{2-[4-(cis-3,5-dimethyl-piperazin-1-yl)-phenylamino]-pyrido[2,3-d]pyrimidin-7-yl}-urea] | 0.911 µM | 0.528 µM | 0.475 µM | 0.05 µM | 245 °C (dec.) |
| C[C@@H]1CN(c2ccc(Nc3ncc4cc(Cl)c(NC(=O)NC(C)(C)C)nc4n3)cc2)C[C@H](C)N1 [Compound 104, 1-tert-Butyl-3-{6-chloro-2-[4-(cis-3,5-dimethyl-piperazin-1-yl)-phenylamino]-pyrido[2,3-d]pyrimidin-7-yl}-urea] | > 5 µM | > 5 µM | > 5 µM | 0.185 µM | 205 °C (dec.) |
| CNC(=O)Nc1cc(C)c2cnc(Nc3ccc(N4CCNCC4)cc3)nc2n1 [Compound 64, 1-Methyl-3-[5-methyl-2-(4-piperazin-1-yl-phenylamino)-pyrido[2,3-d]pyrimidin-7-yl]-urea] | > 5 µM | > 5 µM | > 5 µM | > 5 µM | 204 to 206 °C (dec.) |
| CN(C(=O)Nc1ccc2cnc(Nc3ccc(N4CCNCC4)cc3)nc2n1)C1CCCCC1 [Compound 65, 1-Cyclohexyl-1-methyl-3-[2-(4-piperazin-1-yl-phenylamino)-pyrido[2,3-d]pyrimidin-7-yl]-urea] | > 5 µM | > 5 µM | > 5 µM | > 5 µM | 177 °C (dec.) |
| Cc1cc(NC(=O)NC2CCCCC2)nc2nc(Nc3ccc(N4CCNCC4)cc3)ncc12 [Compound 12, 1-Cyclohexyl-3-[5-methyl-2-(4-piperazin-1-yl-phenylamino)-pyrido[2,3-d]pyrimidin-7-yl]-urea] | > 5 µM | > 5 µM | > 5 µM | 2.1 µM | 238 °C (dec.) |

More lines, now with the values ahead:

| IC50 (cdk1/cyclinB) | IC50 (cdk2/cyclinA) | IC50 (cdk2/cyclinE) | IC50 (cdk4/cyclinD) | melting point | Compound |
| --- | --- | --- | --- | --- | --- |
| 0.862 µM | 0.278 µM | 0.345 µM | > 5 µM | 238 to 240 °C | O=C(NCCO)Nc1ccc2cnc(Nc3ccc(F)cc3)nc2n1 [Compound 97, 1-[2-(4-Fluoro-phenylamino)-pyrido[2,3-d]pyrimidin-7-yl]-3-(2-hydroxy-ethyl)-urea] |
| > 5 µM | > 5 µM | > 5 µM | 1.5 µM | 230 to 232 °C (dec.) | Cc1cc(NC(=O)NC(C)(C)C)nc2nc(Nc3ccc(N4CCNCC4)cc3)ncc12 [Compound 4, 1-tert-Butyl-3-[5-methyl-2-(4-piperazin-1-yl-phenylamino)-pyrido[2,3-d]pyrimidin-7-yl]-urea] |
| 6.36 µM | 1.11 µM | 1.55 µM | > 5 µM | 253 to 256 °C | O=C(NCCCN1CCOCC1)Nc1ccc2cnc(Nc3ccc(F)cc3)nc2n1 [Compound 96, 1-[2-(4-Fluoro-phenylamino)-pyrido[2,3-d]pyrimidin-7-yl]-3-(3-morpholin-4-yl-propyl)-urea] |
| 0.463 µM | 0.13 µM | 0.13 µM | 0.037 µM | 206 to 208 °C (dec.) | CC(=O)N1CCN(c2ccc(Nc3ncc4ccc(NC(=O)NC(C)(C)C)nc4n3)cc2)CC1 [Compound 5, 1-{2-[4-(4-Acetyl-piperazin-1-yl)-phenylamino]-pyrido[2,3-d]pyrimidin-7-yl}-3-tert-butyl-urea] |
| 0.472 µM | 0.213 µM | 0.126 µM | 0.027 µM | 227 to 229 °C | C[C@@H]1CN(c2ccc(Nc3ncc4cc(F)c(NC(=O)NC5CCCCC5)nc4n3)cc2)C[C@H](C)N1 [Compound 52, 1-Cyclohexyl-3-{2-[4-(cis-3,5-dimethyl-piperazin-1-yl)-phenylamino]-6-fluoro-pyrido[2,3-d]pyrimidin-7-yl}-urea] |
| 0.069 µM | 0.022 µM | 0.035 µM | 0.007 µM | 228 °C (dec.) | C[C@@H]1CN(c2ccc(Nc3ncc4ccc(NC(=O)NC5CCCCC5)nc4n3)cc2)C[C@H](C)N1 [Compound 50, 1-Cyclohexyl-3-{2-[4-(cis-3,5-dimethyl-piperazin-1-yl)-phenylamino]-pyrido[2,3-d]pyrimidin-7-yl}-urea] |
| > 5 µM | > 5 µM | > 5 µM | > 5 µM | 190 °C (dec.) | CCCN(CCC)C(=O)Nc1ccc2cnc(Nc3ccc(N4CCNCC4)cc3)nc2n1 [Compound 86, 3-[2-(4-Piperazin-1-yl-phenylamino)-pyrido[2,3-d]pyrimidin-7-yl]-1,1-dipropyl urea] |
| > 5 µM | > 5 µM | > 5 µM | > 5 µM | 220 °C (dec.) | O=C(Nc1ccc2cnc(Nc3ccc(N4CCNCC4)cc3)nc2n1)N1CCNCC1 [Compound 87, Piperazine-1-carboxylic acid [2-(4-piperazin-1-yl-phenylamino)-pyrido[2,3-d]pyrimidin-7-yl]-amide] |
| > 5 µM | > 5 µM | > 5 µM | > 5 µM | 190 °C (dec.) | O=C(Nc1ccc2cnc(Nc3ccc(N4CCNCC4)cc3)nc2n1)N1CCOCC1 [Compound 85, Morpholine-4-carboxylic acid [2-(4-piperazin-1-yl-phenylamino)-pyrido[2,3-d]pyrimidin-7-yl]-amide] |
